Publication PMC11062899, “De novo development of small cyclic peptides that are orally bioavailable” (Nature Chemical Biology, 2023)
Several values for one entry are separate records, joined by “and”; a condition that tells them apart may be missing. Identical values can stand only once.

Tests used:
human α-thrombin = human α-thrombin (Homo sapiens, UniProt P00734); assay: Sub-library screen for active and permeable cyclic peptides (PAMPA plus thrombin inhibition); assay type: biochemical; conditions: crude, slopes normalized to DMSO; for Residual thrombin activity: Top sample: PAMPA acceptor well after 14 h, 5 μM donor; for Residual thrombin activity: Equilibrated sample: donor sample diluted to theoretical equilibrium (1 μM in assay)
Method in brief: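 Acylated cyclic peptides at 5 μM in PBS pH 7.4 with 5% DMSO were run through PAMPA for 14 h at room temperature. Acceptor wells and a diluted donor sample at 3 μM, representing maximum permeability, were preincubated 10 min with human α-thrombin (6 nM stock). Z-Gly-Gly-Arg-AMC (150 μM stock) fluorescence was then read for 30 min at 25 °C, and inhibition was taken against a no-peptide control.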

[1] = Passive artificial membrane permeability (PAMPA)

Structure (SMILES)	Residual thrombin activity: Top sample (human α-thrombin)	Residual thrombin activity: Equilibrated sample (human α-thrombin)	other results
COc1ccc(C[C@@H]2NC(=O)[C@@H](NC(=O)c3ccc(Cl)s3)CCCSCc3cccc(c3)CSCCNC(=O)C[C@H]3CCCN3C2=O)cc1 [C3-X33-L5]	101.3	103.0	–
COc1ccc(C[C@@H]2NC(=O)[C@@H](NC(=O)c3ccc(Cl)s3)CCCSCc3ccccc3CSCCNC(=O)C[C@H]3CCCN3C2=O)cc1 [C3-X33-L6]	95.1	92.6	–
COc1ccc(C[C@@H]2NC(=O)[C@@H](NC(=O)c3ccc(Cl)s3)CCCSCC(=O)CSCCNC(=O)C[C@H]3CCCN3C2=O)cc1 [C3-X33-L7]	103.1	99.9	–
O=C1C[C@H]2CCCN2C(=O)[C@H](Cc2ccc(Cl)cc2)NC(=O)[C@@H](NC(=O)c2ccc(Cl)s2)CCCSCc2cccc(n2)CSCCN1 [C3-X34-L1]	99.1	94.7	–
O=C1C[C@H]2CCCN2C(=O)[C@H](Cc2ccc(Cl)cc2)NC(=O)[C@@H](NC(=O)c2ccc(Cl)s2)CCCSCCS(=O)(=O)CCSCCN1 [C3-X34-L2]	98.4	94.5	–
O=C1C[C@H]2CCCN2C(=O)[C@H](Cc2ccc(Cl)cc2)NC(=O)[C@@H](NC(=O)c2ccc(Cl)s2)CCCSCc2ccc(cc2)CSCCN1 [C3-X34-L3]	101.2	96.4	–
O=C1C[C@H]2CCCN2C(=O)[C@H](Cc2ccc(Cl)cc2)NC(=O)[C@@H](NC(=O)c2ccc(Cl)s2)CCCSC/C=C/CSCCN1 [C3-X34-L4]	100.7	91.1	–
O=C1C[C@H]2CCCN2C(=O)[C@H](Cc2ccc(Cl)cc2)NC(=O)[C@@H](NC(=O)c2ccc(Cl)s2)CCCSCc2cccc(c2)CSCCN1 [C3-X34-L5]	103.1	94.9	–
O=C1C[C@H]2CCCN2C(=O)[C@H](Cc2ccc(Cl)cc2)NC(=O)[C@@H](NC(=O)c2ccc(Cl)s2)CCCSCc2ccccc2CSCCN1 [C3-X34-L6]	94.7	78.6	–
O=C1CSCCC[C@H](NC(=O)c2ccc(Cl)s2)C(=O)N[C@@H](Cc2ccc(Cl)cc2)C(=O)N2CCC[C@@H]2CC(=O)NCCSC1 [C3-X34-L7]	103.7	93.3	–
N#Cc1ccc(C[C@@H]2NC(=O)[C@@H](NC(=O)c3ccc(Cl)s3)CCCSCc3cccc(n3)CSCCNC(=O)C[C@H]3CCCN3C2=O)cc1 [C3-X35-L1]	93.2	95.8	–
N#Cc1ccc(C[C@@H]2NC(=O)[C@@H](NC(=O)c3ccc(Cl)s3)CCCSCCS(=O)(=O)CCSCCNC(=O)C[C@H]3CCCN3C2=O)cc1 [C3-X35-L2]	106.0	96.7	–
N#Cc1ccc(C[C@@H]2NC(=O)[C@@H](NC(=O)c3ccc(Cl)s3)CCCSCc3ccc(cc3)CSCCNC(=O)C[C@H]3CCCN3C2=O)cc1 [C3-X35-L3]	103.5	94.6	–
N#Cc1ccc(C[C@@H]2NC(=O)[C@@H](NC(=O)c3ccc(Cl)s3)CCCSC/C=C/CSCCNC(=O)C[C@H]3CCCN3C2=O)cc1 [C3-X35-L4]	103.2	97.2	–
N#Cc1ccc(C[C@@H]2NC(=O)[C@@H](NC(=O)c3ccc(Cl)s3)CCCSCc3cccc(c3)CSCCNC(=O)C[C@H]3CCCN3C2=O)cc1 [C3-X35-L5]	107.1	100.9	–
N#Cc1ccc(C[C@@H]2NC(=O)[C@@H](NC(=O)c3ccc(Cl)s3)CCCSCc3ccccc3CSCCNC(=O)C[C@H]3CCCN3C2=O)cc1 [C3-X35-L6]	96.5	93.5	–

Structure (SMILES)	Residual thrombin activity: Top sample (human α-thrombin)	Residual thrombin activity: Equilibrated sample (human α-thrombin)	other results
N#Cc1ccc(C[C@@H]2NC(=O)[C@@H](NC(=O)c3ccc(Cl)s3)CCCSCC(=O)CSCCNC(=O)C[C@H]3CCCN3C2=O)cc1 [C3-X35-L7]	106.1	102.1	–
O=C1C[C@H]2CCCN2C(=O)[C@H](Cc2ccc(C(F)(F)F)cc2)NC(=O)[C@@H](NC(=O)c2ccc(Cl)s2)CCCSCc2cccc(n2)CSCCN1 [C3-X36-L1]	102.2	98.3	–
O=C1C[C@H]2CCCN2C(=O)[C@H](Cc2ccc(C(F)(F)F)cc2)NC(=O)[C@@H](NC(=O)c2ccc(Cl)s2)CCCSCCS(=O)(=O)CCSCCN1 [C3-X36-L2]	105.4	99.8	–
O=C1C[C@H]2CCCN2C(=O)[C@H](Cc2ccc(C(F)(F)F)cc2)NC(=O)[C@@H](NC(=O)c2ccc(Cl)s2)CCCSCc2ccc(cc2)CSCCN1 [C3-X36-L3]	101.9	98.7	–
O=C1C[C@H]2CCCN2C(=O)[C@H](Cc2ccc(C(F)(F)F)cc2)NC(=O)[C@@H](NC(=O)c2ccc(Cl)s2)CCCSC/C=C/CSCCN1 [C3-X36-L4]	103.6	102.0	–
O=C1C[C@H]2CCCN2C(=O)[C@H](Cc2ccc(C(F)(F)F)cc2)NC(=O)[C@@H](NC(=O)c2ccc(Cl)s2)CCCSCc2cccc(c2)CSCCN1 [C3-X36-L5]	105.6	108.0	–
O=C1C[C@H]2CCCN2C(=O)[C@H](Cc2ccc(C(F)(F)F)cc2)NC(=O)[C@@H](NC(=O)c2ccc(Cl)s2)CCCSCc2ccccc2CSCCN1 [C3-X36-L6]	96.6	97.7	–
O=C1CSCCC[C@H](NC(=O)c2ccc(Cl)s2)C(=O)N[C@@H](Cc2ccc(C(F)(F)F)cc2)C(=O)N2CCC[C@@H]2CC(=O)NCCSC1 [C3-X36-L7]	101.7	101.7	–
Cc1cccc(C[C@@H]2NC(=O)[C@@H](NC(=O)c3ccc(Cl)s3)CCCSCc3cccc(n3)CSCCNC(=O)C[C@H]3CCCN3C2=O)c1 [C3-X37-L1]	78.3	49.4	–
Cc1cccc(C[C@@H]2NC(=O)[C@@H](NC(=O)c3ccc(Cl)s3)CCCSCCS(=O)(=O)CCSCCNC(=O)C[C@H]3CCCN3C2=O)c1 [C3-X37-L2]	92.4	51.6	–
Cc1cccc(C[C@@H]2NC(=O)[C@@H](NC(=O)c3ccc(Cl)s3)CCCSCc3ccc(cc3)CSCCNC(=O)C[C@H]3CCCN3C2=O)c1 [C3-X37-L3]	90.5	68.7	–
Cc1cccc(C[C@@H]2NC(=O)[C@@H](NC(=O)c3ccc(Cl)s3)CCCSC/C=C/CSCCNC(=O)C[C@H]3CCCN3C2=O)c1 [C3-X37-L4]	84.2	63.6	–
Cc1cccc(C[C@@H]2NC(=O)[C@@H](NC(=O)c3ccc(Cl)s3)CCCSCc3cccc(c3)CSCCNC(=O)C[C@H]3CCCN3C2=O)c1 [C3-X37-L5]	100.9	83.4	–
Cc1cccc(C[C@@H]2NC(=O)[C@@H](NC(=O)c3ccc(Cl)s3)CCCSCc3ccccc3CSCCNC(=O)C[C@H]3CCCN3C2=O)c1 [C3-X37-L6]	92.8	79.2	–
Cc1cccc(C[C@@H]2NC(=O)[C@@H](NC(=O)c3ccc(Cl)s3)CCCSCC(=O)CSCCNC(=O)C[C@H]3CCCN3C2=O)c1 [C3-X37-L7]	84.8	58.3	–
CC(C)NCC(O)COc1cccc2ccccc12 (centres unmarked) [Propranolol, reference compound]	–	–	PAMPA permeability: % permeability ([1]; 50 μM, 12–18 h, acceptor concentration relative to equilibrium): 71 ± 9%; Permeability% Average ([1]; 50 μM, 13 h (Fig. 5d)): 91.0%; Permeability% (single replicates R1–R3) ([1]; 50 μM, 13 h (Fig. 5d), listed as Probranolol): 87.80% and 90.16% and 95.18%; Papp at 50 μM ([1]; PAMPA, pH 7.4): 12.3 ×10⁻⁶ cm/s; Permeability% Average ([1]; top well sample vs theoretical equilibrium sample (TIC), average of R1-R3): 71.1%; Permeability% ([1]; top well sample vs theoretical equilibrium sample (TIC), single replicates R1-R3, listed as Probranolol): 79.61% and 72.27% and 61.48%
